Test results: patent US12114661B2, “Synergistically effective herbicide composition comprising metobromuron and clomazone” (BELCHIM CROP PROTECTION NV, priority 2018, dated 2024)

How the values were obtained:
Persicaria maculate = assay: Example 5 field trial, herbicidal effect, ready-to-use formulation; format: in vivo; settings: 28 DAA
Setaria viridis = assay: Example 1 field trial, herbicidal effect, tank mixture; format: in vivo; settings: 28 DAA
Persicaria maculosa = assay: Example 4 field trial, herbicidal effect, ready-to-use formulation; format: in vivo; settings: 35 DAA
Amaranthus retroflexus [1] = assay: Example 1 field trial, herbicidal effect, tank mixture; format: in vivo; settings: 49 DAA
Galium aparine = assay: Example 5 field trial, herbicidal effect, ready-to-use formulation; format: in vivo; settings: 25 DAA
Amaranthus retroflexus [2] = assay: Example 6 field trial, herbicidal effect, ready-to-use formulation; format: in vivo; settings: 18 DAA
Merculiaris annua [3] = assay: as above; format: in vivo; settings: 18 DAA
Solanum nigrum [4] = assay: Example 4 field trial, herbicidal effect, ready-to-use formulation; format: in vivo; settings: 35 DAA
Solanum physalifolium = assay: Example 5 field trial, herbicidal effect, ready-to-use formulation; format: in vivo; settings: 38 DAA
[5] = tested on: Merculiaris annua (MERAN); assay: Example 3 field trial, herbicidal effect, tank mixture; format: in vivo; settings: 42-56 DAA
Veronica persica = assay: Example 4 field trial, herbicidal effect, ready-to-use formulation; format: in vivo; settings: 55 DAA
Chenopodium album = assay: Example 5 field trial, herbicidal effect, ready-to-use formulation; format: in vivo; settings: 41 DAA
Solanum nigrum [6] = assay: Example 6 field trial, herbicidal effect, ready-to-use formulation; format: in vivo; settings: 18 DAA
Hibiscus trionum = assay: Example 1 field trial, herbicidal effect, tank mixture; format: in vivo; settings: 28 DAA
[7] = tested on: Chenopodium album (CHEAL); assay: Example 3 field trial, herbicidal effect, tank mixture; format: in vivo; settings: 42-56 DAA
Cypurus = assay: Example 4 field trial, herbicidal effect, ready-to-use formulation; format: in vivo; settings: 35 DAA
Panonicum ulmi = assay: Example 6 field trial, herbicidal effect, ready-to-use formulation; format: in vivo; settings: CLZ 72 g a.c./ha; 42 DAA
Merculiaris annua [8] = assay: Example 5 field trial, herbicidal effect, ready-to-use formulation; format: in vivo; settings: 41 DAA
Urtica urens = assay: Example 4 field trial, herbicidal effect, ready-to-use formulation; format: in vivo; settings: 22 DAA
Convolvolus arvensis [9] = assay: as above; format: in vivo; settings: 44 DAA
Echinochloa crus galli = assay: as above; format: in vivo; settings: 35 DAA
Senecio vulgaris (SENVU) = assay: Example 2 field trial, herbicidal effect, tank mixture; format: in vivo; settings: 42-56 DAA
[10] = tested on: Chenopodium album (CHEAL); assay: as above; format: in vivo; settings: 42-56 DAA
Convolvolus arvensis [11] = assay: Example 1 field trial, herbicidal effect, tank mixture; format: in vivo; settings: 28 DAA
Veronica sp. (VERSS) = assay: Example 3 field trial, herbicidal effect, tank mixture; format: in vivo; settings: 42-56 DAA
Polygonum aviculare = assay: Example 5 field trial, herbicidal effect, ready-to-use formulation; format: in vivo; settings: 38 DAA
Amaranthus retroflexus [12] = assay: as above; format: in vivo; settings: 25 DAA
Echinochloa = assay: Example 1 field trial, herbicidal effect, tank mixture; format: in vivo; settings: 29 DAA
[13] = tested on: Persicaria laphatipholium; assay: Example 6 field trial, herbicidal effect, ready-to-use formulation; format: in vivo; settings: 25 DAA
[14] = as above; format: in vivo, Panonicum ulmi; settings: MTB 1200 g a.c./ha; 42 DAA

CC1(C)CON(Cc2ccccc2Cl)C1=O [CLZ, 2-(2-chlorophenyl)methyl-4,4-dimethyl-3-isoxazolidinone]
h.e. (herbicidal effect) (Persicaria maculate; CLZ 90 g a.c./ha): 80%
h.e. (herbicidal effect) (Setaria viridis; CLZ 72 g a.c./ha): 86%
h.e. (herbicidal effect) (Persicaria maculosa; CLZ 36 g a.c./ha): 28%
h.e. (herbicidal effect) (Amaranthus retroflexus [1]; CLZ 72 g a.c./ha): 10%
h.e. (herbicidal effect) (Galium aparine; CLZ 90 g a.c./ha): 33%
h.e. (herbicidal effect) (Amaranthus retroflexus [2]; CLZ 72 g a.c./ha): 77%
h.e. (herbicidal effect) (Merculiaris annua [3]; CLZ 72 g a.c./ha): 60%
h.e. (herbicidal effect) (Solanum nigrum [4]; CLZ 36 g a.c./ha): 52%
h.e. (herbicidal effect) (Solanum physalifolium; CLZ 90 g a.c./ha): 61%
CLZ h.e. ([5]; CLZ 54 g a.c./ha): 43.3%
CLZ h.e. ([5]; CLZ 72 g a.c./ha): 50%
CLZ h.e. ([5]; CLZ 90 g a.c./ha): 23.3%
h.e. (herbicidal effect) (Veronica persica; CLZ 36 g a.c./ha): 0%
h.e. (herbicidal effect) (Chenopodium album; CLZ 90 g a.c./ha): 28%
h.e. (herbicidal effect) (Solanum nigrum [6]; CLZ 72 g a.c./ha): 66%
h.e. (herbicidal effect) (Hibiscus trionum; CLZ 72 g a.c./ha): 79%
CLZ h.e. ([7]; CLZ 54 g a.c./ha): 46.7%
CLZ h.e. ([7]; CLZ 72 g a.c./ha): 56.7%
CLZ h.e. ([7]; CLZ 90 g a.c./ha): 63.3%
h.e. (herbicidal effect) (Cypurus; CLZ 36 g a.c./ha): 67%
h.e. (herbicidal effect) (Panonicum ulmi): 0%
h.e. (herbicidal effect) (Merculiaris annua [8]; CLZ 90 g a.c./ha): 50%
h.e. (herbicidal effect) (Urtica urens; CLZ 36 g a.c./ha): 0%
h.e. (herbicidal effect) (Convolvolus arvensis [9]; CLZ 36 g a.c./ha): 30%
h.e. (herbicidal effect) (Echinochloa crus galli; CLZ 36 g a.c./ha): 63%
CLZ h.e. (Senecio vulgaris (SENVU); CLZ 45 g a.c./ha): 5%
CLZ h.e. (Senecio vulgaris (SENVU); CLZ 67.5 g a.c./ha): 40%
CLZ h.e. (Senecio vulgaris (SENVU); CLZ 90 g a.c./ha): 39%
CLZ h.e. ([10]; CLZ 45 g a.c./ha): 6%
CLZ h.e. ([10]; CLZ 67.5 g a.c./ha): 43%
CLZ h.e. ([10]; CLZ 90 g a.c./ha): 53%
h.e. (herbicidal effect) (Convolvolus arvensis [11]; CLZ 72 g a.c./ha): 46%
CLZ h.e. (Veronica sp. (VERSS); CLZ 54 g a.c./ha): 43.3%
CLZ h.e. (Veronica sp. (VERSS); CLZ 72 g a.c./ha): 60%
CLZ h.e. (Veronica sp. (VERSS); CLZ 90 g a.c./ha): 16.7%
h.e. (herbicidal effect) (Polygonum aviculare; CLZ 90 g a.c./ha): 78%
h.e. (herbicidal effect) (Amaranthus retroflexus [12]; CLZ 90 g a.c./ha): 10%
h.e. (herbicidal effect) (Echinochloa; CLZ 72 g a.c./ha): 57%
h.e. (herbicidal effect) ([13]; CLZ 72 g a.c./ha): 34%

CON(C)C(=O)Nc1ccc(Br)cc1 [MTB, 3-(4-bromophenyl)-1-methoxy-1-methylurea]
h.e. (herbicidal effect) (Persicaria maculate; MTB 1000 g a.c./ha): 43%
h.e. (herbicidal effect) (Setaria viridis; MTB 1200 g a.c./ha): 72%
h.e. (herbicidal effect) (Persicaria maculosa; MTB 400 g a.c./ha): 79%
h.e. (herbicidal effect) (Amaranthus retroflexus [1]; MTB 1200 g a.c./ha): 50%
h.e. (herbicidal effect) (Galium aparine; MTB 1000 g a.c./ha): 28%
h.e. (herbicidal effect) (Amaranthus retroflexus [2]; MTB 1200 g a.c./ha): 43%
h.e. (herbicidal effect) (Merculiaris annua [3]; MTB 1200 g a.c./ha): 40%
h.e. (herbicidal effect) (Solanum nigrum [4]; MTB 400 g a.c./ha): 76%
h.e. (herbicidal effect) (Solanum physalifolium; MTB 1000 g a.c./ha): 65%
MTB h.e. ([5]; MTB 600 g a.c./ha): 10%
MTB h.e. ([5]; MTB 1200 g a.c./ha): 78.3%
MTB h.e. ([5]; MTB 1800 g a.c./ha): 91%
h.e. (herbicidal effect) (Veronica persica; MTB 400 g a.c./ha): 25%
h.e. (herbicidal effect) (Chenopodium album; MTB 1000 g a.c./ha): 75%
h.e. (herbicidal effect) (Solanum nigrum [6]; MTB 1200 g a.c./ha): 31%
h.e. (herbicidal effect) (Hibiscus trionum; MTB 1200 g a.c./ha): 81%
MTB h.e. ([7]; MTB 600 g a.c./ha): 69.3%
MTB h.e. ([7]; MTB 1200 g a.c./ha): 93%
MTB h.e. ([7]; MTB 1800 g a.c./ha): 98.3%
h.e. (herbicidal effect) (Cypurus; MTB 400 g a.c./ha): 50%
h.e. (herbicidal effect) [14]: 89%
h.e. (herbicidal effect) (Merculiaris annua [8]; MTB 1000 g a.c./ha): 49%
h.e. (herbicidal effect) (Urtica urens; MTB 400 g a.c./ha): 37%
h.e. (herbicidal effect) (Convolvolus arvensis [9]; MTB 400 g a.c./ha): 18%
h.e. (herbicidal effect) (Echinochloa crus galli; MTB 400 g a.c./ha): 68%
MTB h.e. (Senecio vulgaris (SENVU); MTB 500 g a.c./ha): 18%
MTB h.e. (Senecio vulgaris (SENVU); MTB 1000 g a.c./ha): 34%
MTB h.e. (Senecio vulgaris (SENVU); MTB 1500 g a.c./ha): 35%
MTB h.e. ([10]; MTB 500 g a.c./ha): 61%
MTB h.e. ([10]; MTB 1000 g a.c./ha): 69%
MTB h.e. ([10]; MTB 1500 g a.c./ha): 79%
h.e. (herbicidal effect) (Convolvolus arvensis [11]; MTB 1200 g a.c./ha): 83%
MTB h.e. (Veronica sp. (VERSS); MTB 600 g a.c./ha): 20%
MTB h.e. (Veronica sp. (VERSS); MTB 1200 g a.c./ha): 35%
MTB h.e. (Veronica sp. (VERSS); MTB 1800 g a.c./ha): 97%
h.e. (herbicidal effect) (Polygonum aviculare; MTB 1000 g a.c./ha): 66%
h.e. (herbicidal effect) (Amaranthus retroflexus [12]; MTB 1000 g a.c./ha): 70%
h.e. (herbicidal effect) (Echinochloa; MTB 1200 g a.c./ha): 35%
h.e. (herbicidal effect) ([13]; MTB 1200 g a.c./ha): 21%
